Patent US8916604B2, “Compositions and methods for epigenetic modification of nucleic acid sequences” (Rutgers, The State University of New Jersey, priority 2011, dated 2014)
Where two headings read alike, the source gives them in different places.

Legend:
[1] = system: first five CpGs of the Nrf2 gene promoter; experiment: Bisulfite genomic sequencing of TRAMP prostate tissues; format: in vivo, mouse; conditions: control 98% methylation
Protocol: Genomic DNA was isolated from the control or DIM treated TRAMP C1 cells and TRAMP dorso-lateral prostate tissues collected from control and DIM treated groups pooled and homogenized using the DNeasy tissue kit (Qiagen, Valencia, Calif., U.S.A.). The genomic DNAs were extracted and subjected to bisulfite conversion carried out using 750 ng of genomic DNA and applying to EZ DNA Methylation Gold Kits (Zymo Research Corp., Orange, Calif., U.S.A.) following the manufacturer's instructions. The converted DNA was amplified by PCR utilizing Platinum PCR SuperMix (Invitrogen, Grand Island, N.Y., U.S.A.) with a set of specific primers, forward: 5′-AGTTATGAAGTAGTAGTAAAAA-3′ (SEQ ID NO: 37) and reverse: 5′-AATATAATCTCATAAAACCCCAC-3 (SEQ ID NO: 38), amplifying the first five CpGs located between −1266 and −1086 of the promoter region of Nrf2 with the translation initiation site defined as +1 (14, 20). Gel extraction using Qiaquick™ gel extraction kit (Qiagen, Valencia, Calif., U.S.A.) were used to purify the PCR products, then cloned into pCR4 TOPO vector using a TOPO™ TA Cloning kit (Invitrogen, Grand Island, N.Y., U.S.A.), Plasmids DNA from at least twenty colonies per for treatment were prepared using QIAprep Spin Miniprep Kit (Qiagen, Valencia Calif., U.S.A.) and sequenced (Genwiz, Piscataway, N.J., U.S.A.).

[2] = system: antioxidant response element (ARE); experiment: ARE-luciferase reporter assay with combination index calculation; format: cell-based, human
Protocol: The stably transfected single clone HepG2-ARE-C8 (HepG2-C8) cell line has been established previously in our laboratory using the […]-luciferase reporter gene. The cells were maintained in Dulbecco's modified Eagle medium supplemented with 10% fetal bovine serum (FBS), 1.17 g/l sodium bicarbonate, and 100 unit/ml penicillin, 100 μg/ml streptomycin at 37° C. in a humidified incubator with 5% CO2. The HepG2-C8 cells were cultured in 12-well plates and each well contained 1 million cells in 1 ml of 10% FRS medium. The cells were treated with compounds for 24 h. The luciferase activity was determined using a luciferase kit from Promega (Madison, USA) according to the manufacturer's instructions. Briefly, after treatments for 24 h, the cells were washed twice with ice-cold phosphate buffered-saline (PBS, pH 7.4) and harvested in 1× reporter lysis buffer and […]. After centrifugation at 4° C., 12000 rpm for 5 min, a 10 μl aliquot of the supernatant was assayed for luciferase activity with a Sirius luminometer (Berthold Detection System GmbH, Pforzheim, Germany). The luciferase activity was normalized against protein concentration, determined by a BCA protein assay (Pierce, Rockford, USA), and expressed as the fold induction over the luciferase activity of control vehicle-treated cells. At least two to three independent studies were conducted in triplicates. To determine the synergistic effect between the combination of two different compounds, the combination index (CI) was calculated with the following formula: […] This approach is based on the Loewe additivity model and although the exact mechanism of interaction may be unknown, this model is one of the most commonly used reference models for evaluating potential drug-drug interactions Lee et al., J Biopharm Stat 2007; 17: 461-480).

HepG2-C8 cells = experiment: MTS cell viability assay; format: cell-based, human; conditions: Homo sapiens
Protocol: The stably transfected single clone HepG2-ARE-C8 (HepG2-C8) cell line has been established previously in our laboratory using the […]-luciferase reporter gene. The cells were maintained in Dulbecco's modified Eagle medium supplemented with 10% fetal bovine serum (FBS), 1.17 g/l sodium bicarbonate, and 100 unit/ml penicillin, 100 μg/ml streptomycin at 37° C. in a humidified incubator with 5% CO2. […] MTS] (Promega, Madison, Wis.). […] The cells were then treated with MTS for 1 h at 37° C. Absorbance of the formazan product was read at 490 nm with a μQuant Biomolecular Spectrophotometer from Bio-Tek Instruments Inc. (Winooski, Vt.). Independent control studies were conducted using 1% and 10% FBS medium.

HO-1 = experiment: qPCR mRNA expression in HepG2-C8 cells; format: cell-based, human; conditions: 25 μM, 6 h, vs 0.1% DMSO
Protocol: (§1) The cells were treated similarly to the NITS and ARE-luciferase assays described above using 10% FBS medium. The incubation of the compounds with the cells was terminated 6 h later. The mRNA expression was evaluated utilizing a quantitative real-time polymerase chain reaction (qPCR). An RNeasy kit from Qiagen was used for RNA extraction (Valencia, Calif.). The total RNA was reverse-transcribed to cDNA by TaqMan Reverse Transcription Reagents (Applied Biosystems Inc, Foster City, Calif.). SYBR Green (Applied Biosystems Inc, Foster City, Calif.) fluorescence was used to measure the product of qPCR. Glyceraldehyde 3-phosphate dehydrogenase (GAPDH) was used as the housekeeping gene, and the Applied Biosystems 7900HT Fast Real-Time PCR System (Applied Biosystems Inc, Foster City, Calif.) was used as described previously (Saw et al., Biochem Pharmacol 2010; 79: 421-430) to detect quantitatively the induction of mRNA of Nrf2, phase II DME GSTm2, NAD (P)H dehydrogenase, quinone 1 (NQO1), UGT family, polypeptide A1 (UGT1A1) and antioxidant enzymes HO-1, superoxide dismutase 1 (SOD1). The primer pairs were designed using the Primer Quest Oligo Design and Analysis Tool by Integrated DNA Technologies Inc. (Coralville, Iowa, USA) and the sequences are listed in Table 4. At least four wells of each treatment were performed and duplicate samples were carried out for each treatment.

Nrf2 = experiment: qPCR mRNA expression in HepG2-C8 cells; format: cell-based, human; conditions: 25 μM, 6 h, vs 0.1% DMSO
Protocol: as §1

c1ccc2c(Cc3c[nH]c4ccccc34)c[nH]c2c1 [DIM, 3,3′-diindolylmethane]
methylation of the first five CpGs of Nrf2 promoter ([1]; D-G1): 37.6%
methylation of the first five CpGs of Nrf2 promoter ([1]; D-G2): 54.4%
induction of ARE-luciferase ([2]; 75 μM, 24 h, compared with any other treatment (p<0.05)): strongly induced
induction of ARE-luciferase ([2]; doses lower than 25 μM, 10% FBS medium (data not shown)): no significant induction
IC50 (HepG2-C8 cells; HepG2C8, 1% FBS medium, read-out: cell viability inhibitory concentrations (IC50)): 51 µM
IC50 (HepG2-C8 cells; HepG2C8, 10% FBS medium (data not shown), read-out: cell viability IC50): ~85 µM
HO-1 mRNA induction over control (HO-1): ~3 fold
Nrf2 mRNA induction over control (Nrf2): ~3 fold
